Patent US10407410B2, “Pyridin-3-yl acetic acid derivatives as inhibitors of human immunodeficiency virus replication” (priority 2016, dated 2019)

The molecules below were run on NL-RLuc virus (HIV) (assay: Inhibition of HIV replication (NL-RLuc luciferase reporter virus in MT-2 cells)). Conditions: Human immunodeficiency virus 1, MT2, 120 h.
Assay type: cell-based
Description: Inhibition of HIV Replication
A recombinant NL-RLuc proviral clone was constructed in which a section of the nef gene from NL4-3 was replaced with the Renilla Luciferase gene. This virus is fully infectious and can undergo multiple cycles of replication in cell culture. In addition, the luciferous reporter provides a simple and easy method for quantitating the extent of virus growth and consequently, the antiviral activity of test compounds. The plasmid pNLRLuc contains the proviral NL-Rluc DNA cloned into pUC18 at the PvuII site. The NL-RLuc virus was prepared by transfection of 293T cells with the plasmid pNLRLuc. Transfections were performed using the LipofectAMINE PLUS kit from Invitrogen (Carlsbad, Calif.) according to the manufacturer and the virus generated was titered in MT-2 cells. For susceptibility analyses, the titrated virus was used to infect MT-2 cells in the presence of compound, and after 5 days of incubation, cells were processed and quantitated for virus growth by the amount of expressed luciferase. Assay media was RPMI 1640 supplemented with 10% heat inactivated fetal bovine serum (FBS), 100 units/ml penicillin G/100 units/ml streptomycin, 10 mM HEPES buffer pH 7.55 and 2 mM L-glutamine. The results from at least 2 experiments were used to calculate the EC50 values. Luciferase was quantitated using the Dual Luciferase kit from Promega (Madison, Wis.). Susceptibility of viruses to compounds was determined by incubation in the presence of serial dilutions of the compound. The 50% effective concentration (EC50) was calculated by using the exponential form of the median effect equation where (Fa)=1/[1+(ED50/drug conc.)^m] (Johnson V A, Byington R T. Infectivity Assay. In Techniques in HIV Research. ed. Aldovini A, Walker B D. 71-76. New York: Stockton Press. 1990).

Compared with Cc1nc(C)c([C@H](OC(C)(C)C)C(=O)O)c(N2CCC(C)(C)CC2)c1-c1ccc2c(c1)CC/C(=C\c1ccc(F)cc1)C2 [Example 25, (S,E)-2-(tert-Butoxy)-2-(4-(4,4-dimethylpiperidin-1-yl)-5-(6-(4-fluorobenzylidene)-5,6,7,8-tetrahydronaphthalen-2-yl)-2,6-dimethylpyridin-3-yl)acetic acid], Cc1nc(C)c([C@H](OC(C)(C)C)C(=O)O)c(N2CCC(C)(C)CC2)c1-c1ccc2c(c1)CCC(Cc1ccc(F)cc1)C2 (stereo partly drawn) [Example 26, (2S)-2-(tert-Butoxy)-2-(4-(4,4-dimethylpiperidin-1-yl)-5-(6-(4-fluorobenzyl)-5,6,7,8-tetrahydronaphthalen-2-yl)-2,6-dimethylpyridin-3-yl)acetic acid] is 2-fold higher in EC50: 5 nM for the first, 10 nM for the second.

Cc1nc(C)c([C@H](OC(C)(C)C)C(=O)O)c(N2CCC(C)(C)CC2)c1-c1ccc2c(c1)CCC(Oc1ccc(F)cc1)C2 (stereo partly drawn) [Example 27, (2S)-2-(tert-Butoxy)-2-(4-(4,4-dimethylpiperidin-1-yl)-5-(6-(4-fluorophenoxy)-5,6,7,8-tetrahydronaphthalen-2-yl)-2,6-dimethylpyridin-3-yl)acetic acid] and Cc1nc(C)c([C@H](OC(C)(C)C)C(=O)O)c(N2CCC(C)(C)CC2)c1-c1ccc2c(c1)CCC(c1ccc(F)cc1)O2 (stereo partly drawn) [Example 42, (2S)-2-tert-Butoxy-2-(4-(4,4-dimethylpiperidin-1-yl)-5-(2-(4-fluorophenyl)chroman-6-yl)-2,6-dimethylpyridin-3-yl)acetic acid] are within 1.5-fold of each other in EC50: 6 nM for the first, 7 nM for the second.

First: Cc1nc(C)c([C@H](OC(C)(C)C)C(=O)O)c(N2CCC(C)(C)CC2)c1-c1ccc2c(c1)CC[C@@H](Cc1ccc(F)c(F)c1)O2 [Example 28, (S)-2-tert-Butoxy-2-(5-((S)-2-(3,4-difluorobenzyl)chroman-6-yl)-4-(4,4-dimethylpiperidin-1-yl)-2,6-dimethylpyridin-3-yl)acetic acid]
Second: Cc1nc(C)c([C@H](OC(C)(C)C)C(=O)O)c(N2CCC(C)(C)CC2)c1-c1ccc2c(c1)CC[C@H](Cc1ccc(F)c(F)c1)O2 [Example 29, (S)-2-tert-Butoxy-2-(5-((R)-2-(3,4-difluorobenzyl)chroman-6-yl)-4-(4,4-dimethylpiperidin-1-yl)-2,6-dimethylpyridin-3-yl)acetic acid]
The EC50 of the first is 2.5-fold lower: 2 nM for the first, 5 nM for the second.

Compared with Cc1ccc(C[C@@H]2CCc3cc(-c4c(C)nc(C)c([C@H](OC(C)(C)C)C(=O)O)c4N4CCC(C)(C)CC4)ccc3O2)c(F)c1 [Example 30, (S)-2-tert-Butoxy-2-(4-(4,4-dimethylpiperidin-1-yl)-5-((S)-2-(2-fluoro-4-methylbenzyl)chroman-6-yl)-2,6-dimethylpyridin-3-yl)acetic acid], Cc1ccc(C[C@H]2CCc3cc(-c4c(C)nc(C)c([C@H](OC(C)(C)C)C(=O)O)c4N4CCC(C)(C)CC4)ccc3O2)c(F)c1 [Example 31, (S)-2-tert-Butoxy-2-(4-(4,4-dimethylpiperidin-1-yl)-5-((R)-2-(2-fluoro-4-methylbenzyl)chroman-6-yl)-2,6-dimethylpyridin-3-yl)acetic acid] is 1.7-fold lower in EC50: 5 nM for the first, 3 nM for the second.

First: Cc1nc(C)c([C@H](OC(C)(C)C)C(=O)O)c(N2CCC(C)(C)CC2)c1-c1ccc2c(c1)CC[C@@H](Cc1ccccc1)O2 [Example 32, (S)-2-(5-((S)-2-Benzylchroman-6-yl)-4-(4,4-dimethylpiperidin-1-yl)-2,6-dimethylpyridin-3-yl)-2-tert-butoxyacetic acid]
Second: Cc1nc(CO)c(-c2ccc3c(c2)CC[C@@H](Cc2ccccc2)O3)c(N2CCC(C)(C)CC2)c1[C@H](OC(C)(C)C)C(=O)O [Example 33, (S)-2-(5-((S)-2-Benzylchroman-6-yl)-4-(4,4-dimethylpiperidin-1-yl)-6-(hydroxymethyl)-2-methylpyridin-3-yl)-2-tert-butoxyacetic acid]
The EC50 of the first is 3.5-fold lower: 2 nM for the first, 7 nM for the second.

Compared with Cc1nc(C)c([C@H](OC(C)(C)C)C(=O)O)c(N2CCC(C)(C)CC2)c1-c1ccc2c(c1)CC[C@@H](Cc1ccc(F)cc1)O2 [Example 34, (S)-2-tert-Butoxy-2-(4-(4,4-dimethylpiperidin-1-yl)-5-((S)-2-(4-fluorobenzyl)chroman-6-yl)-2,6-dimethylpyridin-3-yl)acetic acid], Cc1nc(C)c([C@H](OC(C)(C)C)C(=O)O)c(N2CCC(C)(C)CC2)c1-c1ccc2c(c1)CC[C@H](Cc1ccc(F)cc1)O2 [Example 35, (S)-2-tert-Butoxy-2-(4-(4,4-dimethylpiperidin-1-yl)-5-((R)-2-(4-fluorobenzyl)chroman-6-yl)-2,6-dimethylpyridin-3-yl)acetic acid] is 1.5-fold higher in EC50: 2 nM for the first, 3 nM for the second.

First: Cc1nc(CO)c(-c2ccc3c(c2)CC[C@@H](Cc2ccc(F)cc2)O3)c(N2CCC(C)(C)CC2)c1[C@H](OC(C)(C)C)C(=O)O [Example 36, (S)-2-(tert-Butoxy)-2-(4-(4,4-dimethylpiperidin-1-yl)-5-((S)-2-(4-fluorobenzyl)chroman-6-yl)-6-(hydroxymethyl)-2-methylpyridin-3-yl)acetic acid]
Second: Cc1nc(CO)c(-c2ccc3c(c2)CC[C@H](Cc2ccc(F)cc2)O3)c(N2CCC(C)(C)CC2)c1[C@H](OC(C)(C)C)C(=O)O [Example 37, (S)-2-tert-Butoxy-2-(4-(4,4-dimethylpiperidin-1-yl)-5-((R)-2-(4-fluorobenzyl)chroman-6-yl)-6-(hydroxymethyl)-2-methylpyridin-3-yl)acetic acid]
The EC50 of the first is 2-fold higher: 2 nM for the first, 1 nM for the second.

Cc1nc(C)c([C@H](OC(C)(C)C)C(=O)O)c(N2CCC(C)(C)CC2)c1-c1ccc2c(c1)CC[C@](C)(Cc1ccc(F)cc1)O2 [Example 38, (S)-2-tert-Butoxy-2-(4-(4,4-dimethylpiperidin-1-yl)-5-((R)-2-(4-fluorobenzyl)-2-methylchroman-6-yl)-2,6-dimethylpyridin-3-yl)acetic acid] and Cc1nc(C)c([C@H](OC(C)(C)C)C(=O)O)c(N2CCC(C)(C)CC2)c1-c1ccc2c(c1)CC[C@@](C)(Cc1ccc(F)cc1)O2 [Example 39, (S)-2-tert-Butoxy-2-(4-(4,4-dimethylpiperidin-1-yl)-5-((S)-2-(4-fluorobenzyl)-2-methylchroman-6-yl)-2,6-dimethylpyridin-3-yl)acetic acid] are within 1.5-fold of each other in EC50: 4 nM for the first, 3 nM for the second.

Cc1nc(C)c([C@H](OC(C)(C)C)C(=O)O)c(N2CCC(C)(C)CC2)c1-c1ccc2c(c1)CCC(COc1ccccc1F)O2 (stereo partly drawn) [Example 40, (2S)-2-tert-Butoxy-2-(4-(4,4-dimethylpiperidin-1-yl)-5-(2-((2-fluorophenoxy)methyl)chroman-6-yl)-2,6-dimethylpyridin-3-yl)acetic acid] and Cc1nc(C)c([C@H](OC(C)(C)C)C(=O)O)c(N2CCC(C)(C)CC2)c1-c1ccc2c(c1)CCC(COc1cccc(F)c1F)O2 (stereo partly drawn) [Example 41, (2S)-2-tert-Butoxy-2-(5-(2-((2,3-difluorophenoxy)methyl)chroman-6-yl)-4-(4,4-dimethylpiperidin-1-yl)-2,6-dimethylpyridin-3-yl)acetic acid] are within 1.5-fold of each other in EC50: 4 nM for the first, 3 nM for the second.

Cc1nc(CO)c(-c2ccc3c(c2)CCC(c2ccc(F)cc2)O3)c(N2CCC(C)(C)CC2)c1[C@H](OC(C)(C)C)C(=O)O (stereo partly drawn) [Example 43, (2S)-2-tert-Butoxy-2-(4-(4,4-dimethylpiperidin-1-yl)-5-(2-(4-fluorophenyl)chroman-6-yl)-6-(hydroxymethyl)-2-methylpyridin-3-yl)acetic acid] and Cc1cccc(C2CCc3cc(-c4c(CO)nc(C)c([C@H](OC(C)(C)C)C(=O)O)c4N4CCC(C)(C)CC4)ccc3O2)n1 (stereo partly drawn) [Example 45, (2S)-2-tert-Butoxy-2-(4-(4,4-dimethylpiperidin-1-yl)-6-(hydroxymethyl)-2-methyl-5-(2-(6-methylpyridin-2-yl)chroman-6-yl)pyridin-3-yl)acetic acid] are the same in EC50: 7 nM for the first, 7 nM for the second.

In the case of Cc1cccc(C2CCc3cc(-c4c(C)nc(C)c([C@H](OC(C)(C)C)C(=O)O)c4N4CCC(C)(C)CC4)ccc3O2)n1 (stereo partly drawn) [Example 44, (2S)-2-tert-Butoxy-2-(4-(4,4-dimethylpiperidin-1-yl)-2,6-dimethyl-5-(2-(6-methylpyridin-2-yl)chroman-6-yl)pyridin-3-yl)acetic acid], the EC50 is reported as 8 nM.
